Source: PMC9948168, “Vanillin-Based Indolin-2-one Derivative Bearing a Pyridyl Moiety as a Promising Anti-Breast Cancer Agent via Anti-Estrogenic Activity” (ACS Omega, 2023)

Columns and labels:
Experiment in all cases: NCI-60 one-dose screening
Assay type in all cases: cell-based
HS 578T = details: Homo sapiens, Breast Cancer, read-out: GI (%)
Method: (§1) Compounds 5a–c and 6a–o were tested using standard NCI protocols for in vitro activity at the National Cancer Institute (NCI, Bethesda, Maryland, USA), wherein compounds were tested using one single concentration of 10 μM against 60 cell lines of nine different cancer types. […] Excellent activity was observed against a single NSCLC cell line, EKVX, for compounds 5a–c (GIs = 77–86%, Table 1) with no observed activity for indoles with substituted vanillin 6a–o.
(§2) Anticancer activity was tested against 60 cancer cell lines at the NCI, Bethesda, USA. The screening process was done with a single dosage of 10 μM according to NCI protocols published on the NCI website https://dtp.cancer.gov/discovery_development/nci-60/methodology.htm.

EKVX = details: Homo sapiens, Non-Small Cell Lung Cancer, read-out: GI (%)
Method: as §1, §2

DU-145 = details: Homo sapiens, DU-145, Prostate Cancer, read-out: GI (%)
Method: as §1, §2

PC-3 = details: Homo sapiens, PC-3, Prostate Cancer, read-out: GI (%)
Method: as §1, §2

SW-620 = details: Homo sapiens, SW-620, Colon Cancer, read-out: GI (%)
Method: as §1, §2

HCT-15 = details: Homo sapiens, HCT-15, Colon Cancer, read-out: GI (%)
Method: as §1, §2

SK-MEL-5 = details: Homo sapiens, SK-MEL-5, Melanoma, read-out: GI (%)
Method: as §1, §2

NCI-H460 = details: Homo sapiens, NCI-H460, Non-Small Cell Lung Cancer, read-out: GI (%)
Method: as §1, §2

UO-31 = details: Homo sapiens, UO-31, Renal Cancer, read-out: GI (%)
Method: as §1, §2

SF-539 = details: Homo sapiens, SF-539, CNS Cancer, read-out: GI (%)
Method: as §1, §2

SF-268 = details: Homo sapiens, SF-268, CNS Cancer, read-out: GI (%)
Method: as §1, §2

RPMI-8226 = details: Homo sapiens, RPMI-8226, Leukemias, read-out: GI (%)
Method: as §1, §2

UACC-257 = details: Homo sapiens, UACC-257, Melanoma, read-out: GI (%)
Method: as §1, §2

CCRF-CEM = details: Homo sapiens, Leukemias, read-out: GI (%)
Method: as §1, §2

HOP-92 = details: Homo sapiens, HOP-92, Non-Small Cell Lung Cancer, read-out: GI (%)
Method: as §1, §2

SK-OV-3 = details: Homo sapiens, SK-OV-3, Ovarian Cancer, read-out: GI (%)
Method: as §1, §2

IGROV1 = details: Homo sapiens, IGROV-1, IGROV1, Ovarian Cancer, read-out: GI (%)
Method: as §1, §2

SN12C = details: Homo sapiens, Renal Cancer, read-out: GI (%)
Method: as §1, §2

HCT-116 = details: Homo sapiens, HCT-116, Colon Cancer, read-out: GI (%)
Method: as §1, §2

NCI-H322M = details: Homo sapiens, Non-Small Cell Lung Cancer, read-out: GI (%)
Method: as §1, §2

NCI-H23 = details: Homo sapiens, NCI-H23, Non-Small Cell Lung Cancer, read-out: GI (%)
Method: as §1, §2

HT29 = details: Homo sapiens, HT-29, HT29, Colon Cancer, read-out: GI (%)
Method: as §1, §2

OVCAR-4 = details: Homo sapiens, OVCAR-4, 10 μM; OVCAR-4, Ovarian Cancer; read-out: GI (%)
Method: as §1, §2

BT-549 = details: Homo sapiens, BT-549, Breast Cancer, read-out: GI (%)
Method: as §1, §2

NCI-H522 = details: Homo sapiens, NCI-H522, Non-Small Cell Lung Cancer, read-out: GI (%)
Method: as §1, §2

NCI/ADR-RES = details: Homo sapiens, Ovarian Cancer, read-out: GI (%)
Method: as §1, §2

A498 = details: Homo sapiens, A498, Renal Cancer, read-out: GI (%)
Method: as §1, §2

NCI-H226 = details: Homo sapiens, NCI-H226, Non-Small Cell Lung Cancer, read-out: GI (%)
Method: as §1, §2

MDA-MB-435 = details: Homo sapiens, MDA-MB-435, Melanoma, read-out: GI (%)
Method: as §1, §2

SR = details: Homo sapiens, Leukemias, read-out: GI (%)
Method: as §1, §2

MALME-3M = details: Homo sapiens, Melanoma, read-out: GI (%)
Method: as §1, §2

OVCAR-5 = details: Homo sapiens, OVCAR-5, Ovarian Cancer, read-out: GI (%)
Method: as §1, §2

KM12 = details: Homo sapiens, KM12, Colon Cancer, read-out: GI (%)
Method: as §1, §2

UACC-62 = details: Homo sapiens, UACC-62, Melanoma, read-out: GI (%)
Method: as §1, §2

SK-MEL-28 = details: Homo sapiens, SK-MEL-28, Melanoma, read-out: GI (%)
Method: as §1, §2

| Structure (SMILES) | inhibition at 10 µM (HS 578T) [%] | inhibition at 10 µM (EKVX) [%] | inhibition at 10 µM (DU-145) [%] | inhibition at 10 µM (PC-3) [%] | inhibition at 10 µM (SW-620) [%] | inhibition at 10 µM (HCT-15) [%] | inhibition at 10 µM (SK-MEL-5) [%] | inhibition at 10 µM (NCI-H460) [%] | inhibition at 10 µM (UO-31) [%] | inhibition at 10 µM (SF-539) [%] | inhibition at 10 µM (SF-268) [%] | inhibition at 10 µM (RPMI-8226) [%] | inhibition at 10 µM (UACC-257) [%] | inhibition at 10 µM (CCRF-CEM) [%] | inhibition at 10 µM (HOP-92) [%] | inhibition at 10 µM (SK-OV-3) [%] | inhibition at 10 µM (IGROV1) [%] | inhibition at 10 µM (SN12C) [%] | inhibition at 10 µM (HCT-116) [%] | inhibition at 10 µM (NCI-H322M) [%] | other results |
| --- | --- | --- | --- | --- | --- | --- | --- | --- | --- | --- | --- | --- | --- | --- | --- | --- | --- | --- | --- | --- | --- |
| COc1cc(C=C2C(=O)Nc3cc(Cl)ccc32)ccc1OCc1ccc(Cl)cc1 (mixture of isomers) [6l] | 4.96 | 24.8 | -3.93 | 11.1 | 2.57 | 6.77 | 1.7 | 9.67 | 22.2 | 8.46 | -5.63 | 11.9 | -8.7 | 3.42 | 15.3 | -0.69 | 27.7 | 1.62 | 5.08 | 4.89 | inhibition at 10 µM (NCI-H23): 0.58%; inhibition at 10 µM (HT29): -5.54%; inhibition at 10 µM (OVCAR-4): 25.6%; inhibition at 10 µM (BT-549): 6.99%; inhibition at 10 µM (NCI-H522): 4.01%; inhibition at 10 µM (NCI/ADR-RES): 0.31%; inhibition at 10 µM (A498): 5.41%; inhibition at 10 µM (NCI-H226): 4.89%; inhibition at 10 µM (MDA-MB-435): -5.52%; inhibition at 10 µM (SR): 4.64%; inhibition at 10 µM (MALME-3M): 2.26%; inhibition at 10 µM (OVCAR-5): -2.97%; inhibition at 10 µM (KM12): 3.74%; inhibition at 10 µM (UACC-62): 11.1%; inhibition at 10 µM (SK-MEL-28): -1.11% |
| COc1cc(/C=C2/C(=O)Nc3cc(Cl)ccc32)ccc1O [5c] | 50.9 | 77.2 | -1.46 | 21.6 | 3.92 | 34.8 | 29.1 | 8.53 | 39.5 | 39.8 | 21.8 | 17.9 | 2.41 | 17 | 24.8 | 2.42 | 36.6 | 15.2 | 30.9 | 15.7 | inhibition at 10 µM (NCI-H23): 11.6%; inhibition at 10 µM (HT29): -0.03%; inhibition at 10 µM (OVCAR-4): 25.4%; inhibition at 10 µM (BT-549): 23.8%; inhibition at 10 µM (NCI-H522): 25.4%; inhibition at 10 µM (NCI/ADR-RES): 11.5%; inhibition at 10 µM (A498): 11.1%; inhibition at 10 µM (NCI-H226): 10%; inhibition at 10 µM (MDA-MB-435): 17.8%; inhibition at 10 µM (SR): 43.3%; inhibition at 10 µM (MALME-3M): 8.69%; inhibition at 10 µM (OVCAR-5): -7.45%; inhibition at 10 µM (KM12): 6.51%; inhibition at 10 µM (UACC-62): 41.5%; inhibition at 10 µM (SK-MEL-28): 1.11% |
| COc1cc(/C=C2/C(=O)Nc3ccccc32)ccc1OCc1ccc(Cl)cc1 [6b] | -4.77 | 4.66 | 1.33 | 5.22 | 3.4 | 6.05 | -2.87 | 58.9 | 18.7 | 1.99 | 1.43 | 2.49 | -24.7 | 5.07 | -12.5 | -10.5 | -2.14 | -2.93 | 13.1 | 0.35 | inhibition at 10 µM (NCI-H23): 6.66%; inhibition at 10 µM (HT29): -8.68%; inhibition at 10 µM (OVCAR-4): 0.89%; inhibition at 10 µM (BT-549): -9.1%; inhibition at 10 µM (NCI-H522): 4.25%; inhibition at 10 µM (NCI/ADR-RES): -0.22%; inhibition at 10 µM (A498): -15.1%; inhibition at 10 µM (NCI-H226): 3.35%; inhibition at 10 µM (MDA-MB-435): -6.4%; inhibition at 10 µM (SR): 6.17%; inhibition at 10 µM (MALME-3M): 4.51%; inhibition at 10 µM (OVCAR-5): -0.58%; inhibition at 10 µM (KM12): 0.38%; inhibition at 10 µM (UACC-62): 12.4%; inhibition at 10 µM (SK-MEL-28): 7.06% |
| COc1cc(/C=C2/C(=O)Nc3ccccc32)ccc1OCc1ccc(F)cc1 [6c] | -15.2 | 2.35 | -6.42 | -0.92 | -5.55 | -1.14 | -2.32 | 13.6 | 15.3 | -2.09 | -5.39 | -6.91 | -18.2 | -2.41 | 0.18 | -14.1 | -1.33 | 0.05 | -6.72 | -3.28 | inhibition at 10 µM (NCI-H23): 1.03%; inhibition at 10 µM (HT29): -4.59%; inhibition at 10 µM (OVCAR-4): -2.67%; inhibition at 10 µM (BT-549): -15.7%; inhibition at 10 µM (NCI-H522): 8.05%; inhibition at 10 µM (NCI/ADR-RES): -2.39%; inhibition at 10 µM (A498): 10.8%; inhibition at 10 µM (NCI-H226): -0.42%; inhibition at 10 µM (MDA-MB-435): -3.45%; inhibition at 10 µM (SR): 9.9%; inhibition at 10 µM (MALME-3M): 0.21%; inhibition at 10 µM (OVCAR-5): -6.64%; inhibition at 10 µM (KM12): -0.58%; inhibition at 10 µM (UACC-62): 7.29%; inhibition at 10 µM (SK-MEL-28): -10.2% |
| COc1ccc(COc2ccc(/C=C3/C(=O)Nc4ccccc43)cc2OC)cc1 [6d] | -5.29 | 0.23 | -8.53 | 4.22 | 0.87 | -4.57 | -7.74 | -2.81 | 19.6 | 4.08 | -3 | -4.4 | -15.9 | -3.81 | -1 | -19.1 | -7.35 | 0.36 | -8.46 | -5.76 | inhibition at 10 µM (NCI-H23): -2.85%; inhibition at 10 µM (HT29): -7.81%; inhibition at 10 µM (OVCAR-4): 0.17%; inhibition at 10 µM (BT-549): 7.88%; inhibition at 10 µM (NCI-H522): 6.6%; inhibition at 10 µM (NCI/ADR-RES): -6.16%; inhibition at 10 µM (A498): -10.3%; inhibition at 10 µM (NCI-H226): -3.18%; inhibition at 10 µM (MDA-MB-435): -6.21%; inhibition at 10 µM (SR): -1.92%; inhibition at 10 µM (MALME-3M): 0.29%; inhibition at 10 µM (OVCAR-5): 0.08%; inhibition at 10 µM (KM12): -3.98%; inhibition at 10 µM (UACC-62): 3.29%; inhibition at 10 µM (SK-MEL-28): -6.58% |
